According to patent US12497411B2, “Muscarinic acetylcholine receptor subtype 4 antagonists in the treatment of anemia” (COLD SPRING HARBOR LABORATORY, priority 2019, dated 2025):

What was measured:
[1] = system: Mouse BFU-Es; experiment: Ter119 antibody staining, flow cytometry; assay type: cell-based; details: with or without oxyphenonium bromide, after 12 days of culture
[2] = system: hemolysis, MDS, and aging mouse models; experiment: Hemolysis, MDS and aging anemia mouse models (oxyphenonium bromide); assay type: in vivo; details: 25 mg/kg intraperitoneally
Method: (§1) Primary mouse BFU-Es were isolated from mouse embryonic day 14.5 (E14.5) fetal liver and cultured in StemSpan serum-free expansion medium, and the numbers of cells formed were counted during culture. BFU-Es were infected with either viruses encoding control shRNA or viruses encoding shRNAs targeting Chrm4, and numbers of GFP+ cells formed during culture were counted. DMSO or 25 mg/kg oxyphenonium bromide was intraperitoneally injected into the hemolysis mouse model, Mx1-cre Srsf2 P95H/WT MDS mouse model, and aging mouse model. Complete blood count (CBC) was performed after compound injection. CREB ChIP-Seq was performed on BFU-Es after culture with 100 μM oxyphenonium bromide for 45 minutes. RNA-Seq was performed in BFU-Es after being cultured with DMSO or oxyphenonium bromide for 3 days.
4-6 weeks old C57bl/6 mice were intraperitoneally injected with either control DMSO or compound every day for 3 days. On day 4, mice were intraperitoneally injected with 60 mg/kg PHZ. Mice were then intraperitoneally injected with either compound or control DMSO every day for another 3 days. Peripheral blood samples were collected retro-orbitally using heparinized capillary tubes in blood collection tubes with K2-EDTA. CBC was performed using Hemavet® 950. […]

[3] = system: Human CD34+ hematopoietic stem and progenitor cells; experiment: Human CD34+ cell culture and counting; assay type: cell-based; details: human CD34+ HSPC culture, oxyphenonium bromide (200 μM)
Method: Human CD34+ hematopoietic stem and progenitor cells (HSPCs) were cultured in StemSpan™ SFEM medium containing rhSCF (20 ng/ml), rhIL-3 (5 ng/ml) and EPO (1 U/ml) with various concentrations of dexamethasone and oxyphenonium. Total numbers of cells were counted using a flow-cytometer. For colony formation assay, day 8 cultured cells were plated into methylcellulose medium MethoCult™ H4034 Optimum and BFU-E colonies were counted after 13 days.

[4] = system: phosphorylated CREB in BFU-Es; experiment: Phospho-CREB immunofluorescence; assay type: cell-based, mouse; details: 100 μM oxyphenonium, 45 to 60 min
Method: Freshly isolated BFU-Es were serum starved for 1 hour and treated with either DMSO or 100 μM oxyphenonium for 45 to 60 min. 10^4 cells were collected on Poly L-Lysine coated slides using cytospin. Cells were fixed with 2% paraformaldehyde for 15 min, followed with permeabilization using 0.1% Triton X-100 for 15 min and with 2% BSA solution block for 30 min. Cells were incubated with phospho-CREB antibody (phospho […], Abeam, ab32096, 1:250) in 2% BSA for 1 hour and then incubated with FITC conjugated goat anti-mouse secondary antibody (Abcam, ab97022, 1:500) and FITC conjugated goat anti-rabbit secondary antibody (Abcam, ab97050, 1:500) in 2% BSA solution for 30 min. Cells were then incubated with DAPI for 5 min and then mounted with mounting solution.

[5] = system: Mouse BFU-Es; experiment: BFU-E colony formation assay; assay type: cell-based; details: Day 6 cultured BFU-Es plated on methylcellulose, colonies counted 9 days later
[6] = system: Mouse BFU-Es; experiment: Primary mouse BFU-E culture assay (cell expansion); assay type: cell-based
Method: as §1
BFU-Es were isolated from mouse embryonic day 14.5 fetal liver using fluorescence-activated cell sorting (FACS) method previously described (Flygare et al., Blood 117, 3435-3444 (2011)). BFU-Es were cultured in StemSpan SFEM II medium containing rmSCF (100 ng/ml), EPO (2 U/ml), rmIGF-1 (40 ng/ml), dexamethasone (1 nmol/ml or 10 nmol/ml), oxyphenonium bromide ([…]), and orphenadrine citrate (1 μmol/ml).
BFU-Es were isolated from mouse embryonic day 14.5 fetal liver using fluorescence-activated cell sorting (FACS) method. BFU-Es were cultured in StemSpan SFEM II medium containing rmSCF (100 ng/ml), EPO (2 U/ml), rmIGF-1 (40 ng/ml), dexamethasone (1 nM), together with either DMSO, PCS1055 (5 nM), or PD102807 (3 nM). Numbers of cell formed were counted during in vitro culture.
FIGS. 7 and 8 show the results of the primary BFU-E culture assay. […] Highly purified BFU-Es were isolated as lin-Ter-119-CD16/CD32-Sca-1-CD41-c-Kit+CD71/Cd24a^10% low population using the fluorescence-activated cell sorting (FACS) method. BFU-Es were cultured in medium containing rmSCF, EPO, and rmIGF-1, in the presence of PD102807 or Compounds A-K at indicated concentrations.

[7] = molecular target: T1, human recombinant CHRM1 receptor (Homo sapiens, UniProt P11229); experiment: Radioligand binding assay, CHRM1; details: [3H]pirenzepine (2 nM), CHO cell membranes, 60 minutes at room temperature; read-out: Ki M1
T1 construct: expressed in transfected cells; host or cells: CHO cells (membranes)
T1 sequence (P11229 1-460): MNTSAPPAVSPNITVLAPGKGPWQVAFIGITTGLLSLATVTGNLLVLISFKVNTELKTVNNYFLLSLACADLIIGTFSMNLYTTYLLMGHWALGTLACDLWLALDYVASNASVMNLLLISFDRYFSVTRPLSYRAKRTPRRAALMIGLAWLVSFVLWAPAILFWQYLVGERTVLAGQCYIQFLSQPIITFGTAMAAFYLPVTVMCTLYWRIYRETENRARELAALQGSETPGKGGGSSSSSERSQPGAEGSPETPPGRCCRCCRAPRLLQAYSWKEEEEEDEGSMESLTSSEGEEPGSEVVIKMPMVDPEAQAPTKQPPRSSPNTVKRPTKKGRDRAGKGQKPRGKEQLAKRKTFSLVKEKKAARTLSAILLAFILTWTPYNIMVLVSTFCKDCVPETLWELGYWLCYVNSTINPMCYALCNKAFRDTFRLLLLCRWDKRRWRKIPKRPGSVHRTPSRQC
Method: (§2) PD102807 and Compounds A-K at concentrations of 1×10^−9 M, 1×10^−8 M, 1×10^−7 M, 1×10^−6 M, and 1×10^−5 M were tested in standard binding assays with radioligands and cell membranes with receptors. Compound binding was calculated as a percent inhibition of the binding of a radioactively labeled ligand specific for each target, and the Ki values were determined. For CHRM1, the binding assay was performed using [^3H]pirenzepine (2 nM) as a radioligand and membranes of CHO cells with human recombinant CHRM1 receptor. The incubation time was 60 minutes at room temperature. For CHRM2, the binding assay was performed using [^3H]AF-DX 384 (2 nM) as a radioligand and membranes of CHO cells with human recombinant CHRM2 receptor. The incubation time was also 60 minutes at room temperature. For CHRM3, the binding assay was performed using [^3H]4-DAMP (0.2 nM) as a radioligand and membranes of CHO cells with human recombinant CHRM3 receptor. The incubation time was also 60 minutes at room temperature. For CHRM4, the binding assay was performed using [^3H]4-DAMP (0.2 nM) as a radioligand and membranes of CHO cells with human recombinant CHRM4 receptor. The incubation time was also 60 minutes at room temperature. For CHRM5, the binding assay was performed using [^3H]4-DAMP (0.3 nM) as a radioligand and membranes of CHO cells with human recombinant CHRM5 receptor. The incubation time was also 60 minutes at room temperature.

[8] = Pharmacokinetic profile (plasma) and brain penetration assay; assay type: in vivo, mouse; details: mice, intraperitoneal injection, plasma and brain by LC-MS/MS
Method: PD102807 and Compounds A and B were intraperitoneally injected into mice. Blood was collected at each time point, and transferred tubes containing anticoagulant were centrifuged to obtain plasma. Brain samples were collected each time point and then quick frozen in liquid nitrogen and kept at −75±15° C. Brain samples were homogenized. Concentrations of PD102807 and Compound A and B in the plasma and brain samples were analyzed using the LC-MS/MS method. […] Compound G was intraperitoneally injected into mice. Blood was collected at each time point, and transferred tubes containing anticoagulant were centrifuged to obtain plasma. Brain samples were collected each time point and then quick frozen in liquid nitrogen and kept at −75±15° C. Brain samples were homogenized. Concentrations of Compound G in the plasma and brain samples were analyzed using the LC-MS/MS method.

[9] = molecular target: T2, human recombinant CHRM3 receptor (Homo sapiens, UniProt P20309); experiment: Radioligand binding assay, CHRM3; details: [3H]4-DAMP (0.2 nM), CHO cell membranes, 60 minutes at room temperature; read-out: Ki M3
T2 construct: expressed in transfected cells; host or cells: CHO cells (membranes)
T2 sequence (P20309 whole entry): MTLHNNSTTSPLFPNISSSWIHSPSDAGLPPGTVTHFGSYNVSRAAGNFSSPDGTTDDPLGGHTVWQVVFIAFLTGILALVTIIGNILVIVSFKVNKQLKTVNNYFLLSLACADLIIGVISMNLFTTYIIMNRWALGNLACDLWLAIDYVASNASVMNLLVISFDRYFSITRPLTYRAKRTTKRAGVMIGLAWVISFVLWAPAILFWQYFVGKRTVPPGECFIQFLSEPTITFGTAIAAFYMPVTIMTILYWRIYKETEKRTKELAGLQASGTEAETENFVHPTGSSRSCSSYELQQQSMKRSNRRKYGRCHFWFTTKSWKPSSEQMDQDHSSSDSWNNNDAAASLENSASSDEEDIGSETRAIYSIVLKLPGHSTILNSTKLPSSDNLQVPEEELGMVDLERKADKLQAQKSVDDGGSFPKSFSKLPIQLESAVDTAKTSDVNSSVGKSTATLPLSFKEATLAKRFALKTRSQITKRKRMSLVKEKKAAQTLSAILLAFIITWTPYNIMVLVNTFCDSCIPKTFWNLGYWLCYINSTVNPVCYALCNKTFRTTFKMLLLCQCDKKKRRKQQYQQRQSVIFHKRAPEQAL
Method: as §2

[10] = molecular target: T3, CHRM4 (Homo sapiens, UniProt P08173); experiment: Radioligand binding assay, CHRM4; design: expressed in transfected cells; host or cells: CHO cells (membranes); details: [3H]4-DAMP (0.2 nM), CHO cell membranes, 60 minutes at room temperature; read-out: Ki M4
T3 sequence (P08173 1-479): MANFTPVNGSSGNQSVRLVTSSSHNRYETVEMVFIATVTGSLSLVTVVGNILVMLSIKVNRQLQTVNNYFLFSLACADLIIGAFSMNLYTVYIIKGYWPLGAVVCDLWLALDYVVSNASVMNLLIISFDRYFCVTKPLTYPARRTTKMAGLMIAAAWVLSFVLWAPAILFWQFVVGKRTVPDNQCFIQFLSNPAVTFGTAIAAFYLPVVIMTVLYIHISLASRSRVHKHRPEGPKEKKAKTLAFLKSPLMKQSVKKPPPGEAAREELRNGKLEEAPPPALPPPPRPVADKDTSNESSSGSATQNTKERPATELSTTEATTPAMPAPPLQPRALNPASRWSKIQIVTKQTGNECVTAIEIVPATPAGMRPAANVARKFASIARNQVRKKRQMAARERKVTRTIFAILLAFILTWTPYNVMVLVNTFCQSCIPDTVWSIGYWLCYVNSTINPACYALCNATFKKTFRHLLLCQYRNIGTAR
Method: as §2

[11] = molecular target: T4, human recombinant CHRM2 receptor (Homo sapiens, UniProt P08172); experiment: Radioligand binding assay, CHRM2; details: [3H]AF-DX 384 (2 nM), CHO cell membranes, 60 minutes at room temperature; read-out: Ki M2
T4 construct: expressed in transfected cells; host or cells: CHO cells (membranes)
T4 sequence (P08172 1-466): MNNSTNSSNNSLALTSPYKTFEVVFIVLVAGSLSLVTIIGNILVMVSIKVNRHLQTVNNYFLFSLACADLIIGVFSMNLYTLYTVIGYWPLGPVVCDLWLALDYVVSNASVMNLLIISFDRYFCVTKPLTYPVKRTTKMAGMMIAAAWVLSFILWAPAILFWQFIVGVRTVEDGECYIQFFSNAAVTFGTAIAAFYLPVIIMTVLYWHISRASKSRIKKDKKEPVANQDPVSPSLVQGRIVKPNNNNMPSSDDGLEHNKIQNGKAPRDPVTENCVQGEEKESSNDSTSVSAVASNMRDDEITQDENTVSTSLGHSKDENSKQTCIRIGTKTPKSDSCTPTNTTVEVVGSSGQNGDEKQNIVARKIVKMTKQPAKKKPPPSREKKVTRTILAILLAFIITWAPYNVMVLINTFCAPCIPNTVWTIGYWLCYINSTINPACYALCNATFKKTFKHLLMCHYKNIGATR
Method: as §2

## CC[N+](C)(CC)CCOC(=O)C(O)(c1ccccc1)C1CCCCC1 (stereo not drawn) [oxyphenonium bromide]
[1]
  percentage of Ter119+ differentiated cells: no difference
[2]
  correction of anemia in vivo: corrects anemia in vivo
[3]
  expansion of erythroid cells: 2 to 4 fold
[4]
  nuclear localization of phosphorylated CREB: increase in nuclear localization
[5]
  formation of BFU-E colonies: ~2 fold
[6]; 100 μM oxyphenonium bromide, vs culture without compound
  production of more erythrocytes from BFU-E: ~10 fold
[6]; mouse BFU-E culture
  BFU-E expansion (test of GPCR agonists and antagonists): triggered BFU-E expansion

## CCOC(=O)c1c(C)n(C)c2ccc(OC)c(C[N+]3(C)CCc4cc(OC)ccc4C3)c12.[I-] (stereo not drawn) [Compound G, 2-((3-(ethoxycarbonyl)-5-methoxy-1,2-dimethyl-1H-indol-4-yl)methyl)-6-methoxy-2-methyl-1,2,3,4-tetrahydroisoquinolin-2-ium Iodide]
[7]
  Ki: 4.4 µM
[8]
  brain penetration in comparison to PD102807: reduced brain penetration
[9]
  Ki: 0.4 µM
[10]
  Ki: 1.5 µM
[11]
  Ki: 0.76 µM
